Laboratory results published in US11690860B2, “Treatment of HCV infected patients with cirrhosis” (Atea Pharmaceuticals, Inc., priority 2018, dated 2023).
Entries after “also recorded” stand apart in the source; their conditions may differ. Read-outs that look alike come from different tables or passages of the source.

Assay: Plasma pharmacokinetics of Compound 1 and metabolite 1-7 (LC-MS/MS) in Parts C, D and E
Type: in vivo, human
Description: Doses were administered as the Compound 2 salt base. The free base Compound 1 equivalent is often given in parenthesis.
Part C was a randomized, double-blind, placebo-controlled MAD study divided into three cohorts. […] The dose escalation only proceeded following satisfactory review of the data.
HCV-infected patients were treatment-naïve with HCV RNA ≥5 log 10 IU/mL. HCV RNA was quantified using COBAS® AmpliPrep TaqMAN® v2.0 with LLQ of 15 IU/mL. Plasma drug levels were measured using LC-MS/MS. […] Cirrhosis was confirmed by prior liver biopsy or Fibroscan >12.5 kPa. […] Mean ages of enrolled subjects were 44, 39, and 56 years in the non-cirrhotic GT1b 600 mg dose cohort, non-cirrhotic GT3 cohort, and the cirrhotic cohort, respectively.
Plasma levels of metabolite 1-7 were measured using LC-MS/MS.

[1] = Part C, 150 to 600 mg Compound 2

C[C@@]1(F)[C@H](O)[C@@H](CO)O[C@H]1n1cnc2c(=O)[nH]c(N)nc21 [Metabolite 1-7, 2-amino-9-((2R,3R,4R,5R)-3-fluoro-4-hydroxy-5-(hydroxymethyl)-3-methyltetrahydrofuran-2-yl)-1,9-dihydro-6H-purin-6-one]
PK in cirrhotic compared with non-cirrhotic subjects (600 mg QD of Compound 2, Parts C/D vs Part E): similar; also recorded: comparable | time at which steady state was reached (NC subjects, based on metabolite 1-7 trough levels): after the third or fourth dose; also recorded: day 3 or 4 | higher trough upon reaching steady state (Part C): 50%-60% | time of peak formation after dosing (Part C): approximately 6 hours | dose proportionality of plasma exposure (peak and total) [1]: dose proportional from 150 to 300 mg and less than dose proportional from 300 mg to 600 mg | dose proportionality of trough levels [1]: mostly dose proportional | AUC Day 1 (AUC, for Metabolite 1-7) (Part C, NC GT1b, 150 mg/d Compound 2 QD, n=6): 800 ± 213 ng/mLxh | AUC Day 1 (AUC, for Metabolite 1-7) (Part C, NC GT1b, 300 mg/d Compound 2 QD, n=6): 1414 ± 220 ng/mLxh | AUC Day 1 (AUC, for Metabolite 1-7) (Part C, NC GT1b, 600 mg/d Compound 2 QD, n=6): 2204 ± 486 ng/mLxh | C24 h Day 1 (Part C, NC GT1b, 600 mg/d Compound 2 QD, n=6, trough after the first dose): 27.5 ± 5.21 ng/mL | AUC Day 1 (AUC, for Metabolite 1-7) (Part D, NC GT3, 600 mg/d Compound 2 QD, n=6): 2253 ± 595 ng/mLxh | C24 h Day 1 (Part D, NC GT3, 600 mg/d Compound 2 QD, n=6, trough after the first dose): 30.1 ± 10.9 ng/mL | AUC Day 1 (AUC, for Metabolite 1-7) (Part E, Child-Pugh A cirrhotic, 600 mg/d Compound 2 QD, n=6): 2625 ± 873 ng/mLxh | C24 h Day 1 (Part E, Child-Pugh A cirrhotic, 600 mg/d Compound 2 QD, n=6, trough after the first dose): 41.6 ± 12.9 ng/mL | steady state plasma trough level (cirrhotic patients, 600 mg of Compound 2): 45.7 ng/mL | AUC (human, plasma, 150 mg, AUC of metabolite 1-7, range for the dose, 150 mg Compound 2 QD 7 days (FIG. 7)): 397 to 1430 ng·h/mL | AUC (human, plasma, 300 mg, AUC of metabolite 1-7, range for the dose, 300 mg Compound 2 QD 7 days (FIG. 7)): 1300 to 2580 ng·h/mL | AUC (human, plasma, 600 mg, AUC of metabolite 1-7, range for the dose, 600 mg Compound 2 QD 7 days (FIG. 7)): 2250 to 5380 ng·h/mL | AUC (human, plasma, 600 mg, metabolite 1-7 exposure (AUC) achieved, 600 mg Compound 2 QD, all subjects, cirrhotic or non-cirrhotic): > 2000 ng·h/mL | concentration at 24 h (human, plasma, oral, 150 mg/d, Part C, NC GT1b, 150 mg/d Compound 2 QD, n=6, read-out: C24 h Day 1): 8.08 ± 3.48 ng/mL | Cmax (human, plasma, oral, 150 mg/d, Part C, NC GT1b, 150 mg/d Compound 2 QD, n=6, read-out: Cmax Day 1): 75.6 ± 15.4 ng/mL | concentration at 24 h (human, plasma, oral, 150 mg/d, steady state = mean of C24 at 72, 96, 120, 144 and 168 h, Part C, NC GT1b, 150 mg/d Compound 2 QD, n=6, read-out: C24 h SS): 12.8 ± 4.45 ng/mL | Cmax (human, plasma, oral, 150 mg/d, steady state, Part C, NC GT1b, 150 mg/d Compound 2 QD, n=6, read-out: Cmax SS): 81.1 ± 33.9 ng/mL | half-life (human, plasma, oral, 150 mg/d, steady state, Part C, NC GT1b, 150 mg/d Compound 2 QD, n=6, read-out: T1/2 SS (converted)): 12.5 h | Cmax (human, plasma, oral, 300 mg/d, Part C, NC GT1b, 300 mg/d Compound 2 QD, n=6, read-out: Cmax Day 1): 123 ± 16.6 ng/mL | concentration at 24 h (human, plasma, oral, 300 mg/d, steady state = mean of C24 at 72, 96, 120, 144 and 168 h, Part C, NC GT1b, 300 mg/d Compound 2 QD, n=6, read-out: C24 h SS): 26.1 ± 7.56 ng/mL | Cmax (human, plasma, oral, 300 mg/d, steady state, Part C, NC GT1b, 300 mg/d Compound 2 QD, n=6, read-out: Cmax SS): 220 ± 203 ng/mL | half-life (human, plasma, oral, 300 mg/d, steady state, Part C, NC GT1b, 300 mg/d Compound 2 QD, n=6, read-out: T1/2 SS (converted)): 24.5 h | Cmax (human, plasma, oral, 600 mg/d, Part C, NC GT1b, 600 mg/d Compound 2 QD, n=6, read-out: Cmax Day 1): 197 ± 57.1 ng/mL | concentration at 24 h (human, plasma, oral, 600 mg/d, Part C, NC GT1b, 600 mg/d Compound 2 QD, n=6, trough after the first dose, read-out: C24 h Day 1): 27.5 ng/mL | Cmax (human, plasma, oral, 600 mg/d, Part D, NC GT3, 600 mg/d Compound 2 QD, n=6, read-out: Cmax Day 1): 195 ± 42.9 ng/mL | concentration at 24 h (human, plasma, oral, 600 mg/d, Part D, NC GT3, 600 mg/d Compound 2 QD, n=6, trough after the first dose, read-out: C24 h Day 1): 30.1 ng/mL | Cmax (human, plasma, oral, 600 mg/d, Part E, Child-Pugh A cirrhotic, 600 mg/d Compound 2 QD, n=6, read-out: Cmax Day 1): 201 ± 68.1 ng/mL | concentration at 24 h (human, plasma, oral, 600 mg/d, Part E, Child-Pugh A cirrhotic, 600 mg/d Compound 2 QD, n=6, trough after the first dose, read-out: C24 h Day 1): 41.6 ng/mL | concentration at 24 h (human, plasma, oral, 600 mg/d, steady state = mean of C24 at 72, 96, 120, 144 and 168 h, Part C, NC GT1b, 600 mg/d Compound 2 QD, n=6, read-out: C24 h SS): 46.9 ± 15.5 ng/mL | concentration at 24 h (human, plasma, oral, 600 mg/d, steady state = mean of C24 at 72, 96, 120, 144 and 168 h, Part D, NC GT3, 600 mg/d Compound 2 QD, n=6, read-out: C24 h SS): 37.8 ± 11.4 ng/mL | concentration at 24 h (human, plasma, oral, 600 mg/d, steady state = mean of C24 at 72, 96, 120, 144 and 168 h, Part E, Child-Pugh A cirrhotic, 600 mg/d Compound 2 QD, n=6, read-out: C24 h SS): 69.9 ± 18.5 ng/mL | Cmax (human, plasma, oral, 600 mg/d, steady state, Part C, NC GT1b, 600 mg/d Compound 2 QD, n=6, read-out: Cmax SS): 233 ± 42.9 ng/mL | half-life (human, plasma, oral, 600 mg/d, steady state, Part C, NC GT1b, 600 mg/d Compound 2 QD, n=6, read-out: T1/2 SS (converted)): 28.9 h | Cmax (human, plasma, oral, 600 mg/d, steady state, Part D, NC GT3, 600 mg/d Compound 2 QD, n=6, read-out: Cmax SS): 263 ± 104 ng/mL | half-life (human, plasma, oral, 600 mg/d, steady state, Part D, NC GT3, 600 mg/d Compound 2 QD, n=6, read-out: T1/2 SS (converted)): 27.9 h | half-life (human, plasma, oral, 600 mg/d, steady state, Part E, Child-Pugh A cirrhotic, 600 mg/d Compound 2 QD, n=6, read-out: T1/2 SS (converted)): 24.4 h | Tmax (human, plasma, oral, 600 mg/d, steady state, Part E, Child-Pugh A cirrhotic, 600 mg/d Compound 2 QD, n=6, read-out: Tmax SS): 6 h | half-life (human, plasma, oral, Part C, read-out: half-life): 13 to 30 h | food effect on total and trough exposure (in vivo): No food effect | AUC SS (AUC, for Metabolite 1-7) (steady state, Part C, NC GT1b, 150 mg/d Compound 2 QD, n=6): 962 ± 409 ng/mLxh | AUC SS (AUC, for Metabolite 1-7) (steady state, Part C, NC GT1b, 300 mg/d Compound 2 QD, n=6): 1828 ± 453 ng/mLxh | AUC SS (AUC, for Metabolite 1-7) (steady state, Part C, NC GT1b, 600 mg/d Compound 2 QD, n=6): 2839 ± 572 ng/mLxh | AUC SS (AUC, for Metabolite 1-7) (steady state, Part D, NC GT3, 600 mg/d Compound 2 QD, n=6): 3117 ± 1048 ng/mLxh | AUC SS (AUC, for Metabolite 1-7) (steady state, Part E, Child-Pugh A cirrhotic, 600 mg/d Compound 2 QD, n=6): 3569 ± 1214 ng/mLxh | time at which steady state was reached (subjects with cirrhosis): day 5; also recorded: after the fifth dose
